Data: patent publication US11649242B2, “Pyrrolopyrrole compositions as pyruvate kinase (PKR) activators” (FORMA Therapeutics, Inc., priority 2017, dated 2023)

Assays:
Format in all cases: biochemical
PKR(R510Q) = PKR(R510Q) (Homo sapiens, UniProt P30613, R510Q); experiment: Luminescence Assay Protocol (Kinase Glo Plus), PKR(R510Q/without FBP); details: PKRR510Q, without FBP; for activation at 1.54 µM: compound 1.54 μM, read-out: F - AC50 LUM KGP woFBP % Fold @ 1.54 μM mean; for AC50: gmean, read-out: D - AC50 LUM KGP woFBP AC50 μM gmean; for Emax: read-out: E - AC50 LUM KGP woFBP MAX % FOLD mean
Chain of PKR(R510Q) (P30613 whole entry R510Q): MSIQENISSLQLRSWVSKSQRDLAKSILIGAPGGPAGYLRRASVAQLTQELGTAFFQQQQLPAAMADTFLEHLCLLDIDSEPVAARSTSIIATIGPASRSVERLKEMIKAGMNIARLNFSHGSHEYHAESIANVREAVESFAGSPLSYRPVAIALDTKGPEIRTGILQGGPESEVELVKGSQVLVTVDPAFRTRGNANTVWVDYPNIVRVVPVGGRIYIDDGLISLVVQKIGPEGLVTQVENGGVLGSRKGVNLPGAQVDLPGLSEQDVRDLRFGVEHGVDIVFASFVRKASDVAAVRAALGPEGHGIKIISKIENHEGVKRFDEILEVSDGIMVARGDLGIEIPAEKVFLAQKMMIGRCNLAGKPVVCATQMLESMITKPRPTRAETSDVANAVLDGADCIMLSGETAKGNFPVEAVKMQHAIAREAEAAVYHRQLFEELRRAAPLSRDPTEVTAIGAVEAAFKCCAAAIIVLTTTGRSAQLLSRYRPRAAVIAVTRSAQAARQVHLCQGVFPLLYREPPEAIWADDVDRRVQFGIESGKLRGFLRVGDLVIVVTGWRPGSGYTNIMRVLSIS
Description: (§1) Example 47: PKR(Wt/without FBP), PKR(G332S/with FBP), PKR(R510Q/without FBP)
(§2) The phosphorylation of Adenosine-5′-diphosphate (ADP) by various mutants of PKR was determined by the Kinase Glo Plus Assay (Promega) in the presence or absence of FBP [D-Fructose-1,6-diphosphate; BOC Sciences, CAS: 81028-91-3] as follows. Unless otherwise indicated, all reagents were purchased from Sigma-Aldrich. All reagents were prepared in buffer containing 50 mM Tris-HCl, 100 mM KCl, 5 mM MgCl2, and 0.01% Triton X100, 0.03% BSA, and 1 mM DTT. Enzyme and PEP [Phospho(enol) pyruvic acid] were added at 2× to all wells of an assay-ready plate containing serial dilutions of test compounds or DMSO vehicle. Final enzyme concentrations for PKR(wt), PKR(R510Q), and PKR(G332S) were 0.8 nM, 0.8 nM, and 10 nM respectively. Final PEP concentration was 100 μM. The Enzyme/PEP mixture was incubated with compounds for 30 minutes at RT before the assay was initiated with the addition of 2×ADP [Adenosine-5′-diphosphate] and KinaseGloPlus. Final concentration of ADP was 100 μM. […] For assays containing FBP, that reagent is added at 30 μM upon reaction initiation. Reactions were allowed to progress for 45 minutes at RT until luminescence was recorded by the BMG PHERAstar FS Multilabel Reader. All compounds were tested in triplicate at concentrations ranging from 42.5 μM to 2.2 nM in 0.83% DMSO.
(§3) Luminescence values were converted to % Fold increase by normalizing to the average of the DMSO control and multiplying by 100. Max, min, slope and AC50 were determined by the standard four parameter fit algorithm of ActivityBase XE Runner. Compounds were evaluated with three parameters—AC50, MAX % Fold, and % Fold@1.54 μM (FIG. 1). The AC50 value for a compound is the concentration […] corresponding to the midway between the maximum and minimum values of the four parameter logistic curve fit (i.e., at which the % fold increase along the four parameter logistic curve fit is halfway between MAX % Fold and MIN % Fold (% Fold Midpoint)), MAX % Fold is the highest fold increase observed at any concentration of compound, and % Fold@1.54 μM is the fold increase at a compound concentration of 1.54 μM. The parameter % Fold@1.54 μM was selected to capture elements of both the AC50 and MAX % Fold and to provide a ranking based on both potency and effect. The compound concentration of 1.54 μM was chosen as one that can optimally differentiate the set of compounds based on the range of activities observed.
(§4) As set forth in Tables 6 and 7 below, AC50 values (columns A, D, G) are defined as follows: ≤0.1 μM (+++); >0.1 μM and ≤1.0 μM (++); >1.0 μM and ≤40 μM (+); >40 μM (0). Max % FOLD values (columns B, E, H) are defined as follows: ≤75% (+); >75% and ≤250% (++); >250% and ≤500% (+++). % Fold@1.54 μM values (columns C, F, I) are defined as follows: ≤75% (+); >75% and ≤250% (++); >250% and ≤500% (+++).

PKR(wt) = PKR(wt) (Homo sapiens, UniProt P30613); experiment: Luminescence Assay Protocol (Kinase Glo Plus), PKR(Wt/without FBP); details: without FBP; for activation at 1.54 µM: compound 1.54 μM, read-out: I - AC50 LUM KGP woFBP % Fold @ 1.54 μM mean; for AC50: gmean, read-out: G - AC50 LUM KGP woFBP AC50 μM gmean; for Emax: highest % fold increase at any concentration, read-out: H - AC50 LUM KGP woFBP MAX % FOLD mean
Chain of PKR(wt) (P30613 whole entry): as the sequence (P30613 whole entry R510Q) above, with Q510R counted along it
Description: as §1, §2, §3, §4

PKR(G332S) = PKR(G332S) (Homo sapiens, UniProt P30613, G332S); experiment: Luminescence Assay Protocol (Kinase Glo Plus), PKR(G332S/with FBP); details: PKRG332S, with FBP; for AC50: gmean, read-out: A - AC50 LUM KGP FBP AC50 μM gmean; for activation at 1.54 µM: compound 1.54 μM, read-out: C - AC50 LUM KGP FBP % Fold @ 1.54 μM mean; for Emax: highest % fold increase at any concentration, read-out: B - AC50 LUM KGP FBP MAX % FOLD mean
Chain of PKR(G332S) (P30613 whole entry G332S): as the sequence (P30613 whole entry R510Q) above, with G332S, Q510R counted along it
Description: as §1, §2, §3, §4

[1] = highest % fold increase at any concentration

Structure (SMILES) | activation at 1.54 µM (PKR(R510Q)) | AC50 (PKR(R510Q)) | E - AC50 LUM KGP woFBP MAX % FOLD mean (PKR(R510Q); [1]) | activation at 1.54 µM (PKR(wt)) | AC50 (PKR(wt)) | Emax (PKR(wt)) | AC50 (PKR(G332S)) | activation at 1.54 µM (PKR(G332S)) | Emax (PKR(G332S)) | Emax (PKR(R510Q); [1])
O=C(C(CO)c1ccccn1)N1CC2=C(C1)CN(S(=O)(=O)c1cnc3c(c1)OCCO3)C2 (single isomer, unassigned) [Example 4, (S or R)-1-(5-((2,3-dihydro-[1,4]dioxino[2,3-b]pyridin-7-yl)sulfonyl)-3,4,5,6-tetrahydropyrrolo[3,4-c]pyrrol-2(1H)-yl)-3-hydroxy-2-(pyridin-2-yl)propan-1-one] | 75 to 250% | 1 to 40 µM | ++ (>75% and ≤250% (++)) | 75 to 250% | 1 to 40 µM | 75 to 250% | – | – | – | –
O=C(C(CO)c1ccccc1)N1CC2=C(C1)CN(S(=O)(=O)c1ccc3occc3c1)C2 (stereo not shown) [Example 8, 1-(5-(benzofuran-5-ylsulfonyl)-3,4,5,6-tetrahydropyrrolo[3,4-c]pyrrol-2(1H)-yl)-3-hydroxy-2-phenylpropan-1-one] | – | – | – | 250 to 500% | ≤ 0.1 µM | 250 to 500% | – | – | – | –
CC(C)(CO)C(=O)N1CC2=C(C1)CN(S(=O)(=O)c1ccc3occc3c1)C2 [Example 9, 1-(5-(benzofuran-5-ylsulfonyl)-3,4,5,6-tetrahydropyrrolo[3,4-c]pyrrol-2(1H)-yl)-3-hydroxy-2,2-dimethylpropan-1-one] | – | – | – | 75 to 250% | ≤ 0.1 µM | 75 to 250% | – | – | – | –
CC(CO)(CO)C(=O)N1CC2=C(C1)CN(S(=O)(=O)c1ccc3occc3c1)C2 [Example 10, 1-(5-(benzofuran-5-ylsulfonyl)-3,4,5,6-tetrahydropyrrolo[3,4-c]pyrrol-2(1H)-yl)-3-hydroxy-2-(hydroxymethyl)-2-methylpropan-1-one] | – | – | – | 75 to 250% | ≤ 0.1 µM | 250 to 500% | – | – | – | –
CCC(CO)(CO)C(=O)N1CC2=C(C1)CN(S(=O)(=O)c1ccc3occc3c1)C2 [Example 11, 1-(5-(benzofuran-5-ylsulfonyl)-3,4,5,6-tetrahydropyrrolo[3,4-c]pyrrol-2(1H)-yl)-2,2-bis(hydroxymethyl)butan-1-one] | – | – | – | 75 to 250% | 0.1 to 1 µM | 250 to 500% | – | – | – | –
O=C([C@@H]1CCOC1)N1CC2=C(C1)CN(S(=O)(=O)c1ccc3occc3c1)C2 [Example 12, (R)-(5-(benzofuran-5-ylsulfonyl)-3,4,5,6-tetrahydropyrrolo[3,4-c]pyrrol-2(1H)-yl)(tetrahydrofuran-3-yl)methanone] | – | – | – | 250 to 500% | 0.1 to 1 µM | 250 to 500% | – | – | – | –
O=C([C@H]1CCOC1)N1CC2=C(C1)CN(S(=O)(=O)c1ccc3occc3c1)C2 [Example 13, (S)-(5-(benzofuran-5-ylsulfonyl)-3,4,5,6-tetrahydropyrrolo[3,4-c]pyrrol-2(1H)-yl)(tetrahydrofuran-3-yl)methanone] | – | – | – | 75 to 250% | 0.1 to 1 µM | 250 to 500% | – | – | – | –
COCC1(C(=O)N2CC3=C(C2)CN(S(=O)(=O)c2ccc4occc4c2)C3)CC1 [Example 17, (5-(benzofuran-5-ylsulfonyl)-3,4,5,6-tetrahydropyrrolo[3,4-c]pyrrol-2(1H)-yl)(1-(methoxymethyl)cyclopropyl)methanone] | – | – | – | 75 to 250% | 0.1 to 1 µM | 75 to 250% | – | – | – | –
O=C(C(CO)c1ccccc1)N1CC2=C(C1)CN(S(=O)(=O)c1ccc3c(c1)OCCO3)C2 (stereo not shown) [Example 18, 1-(5-((2,3-dihydrobenzo[b][1,4]dioxin-6-yl)sulfonyl)-3,4,5,6-tetrahydropyrrolo[3,4-c]pyrrol-2(1H)-yl)-3-hydroxy-2-phenylpropan-1-one] | 75 to 250% | ≤ 0.1 µM | – | – | – | – | > 40 µM | 75 to 250% | 75 to 250% | 75 to 250%
Cc1nc2ccc(S(=O)(=O)N3CC4=C(CN(C(=O)C(C)(C)CO)C4)C3)cc2o1 [Example 21, 3-hydroxy-2,2-dimethyl-1-(5-((2-methylbenzo[d]oxazol-6-yl)sulfonyl)-3,4,5,6-tetrahydropyrrolo[3,4-c]pyrrol-2(1H)-yl)propan-1-one] | – | – | – | 75 to 250% | 1 to 40 µM | 75 to 250% | – | – | – | –

Further lines, results first:

activation at 1.54 µM (PKR(R510Q)) | AC50 (PKR(R510Q)) | E - AC50 LUM KGP woFBP MAX % FOLD mean (PKR(R510Q); [1]) | activation at 1.54 µM (PKR(wt)) | AC50 (PKR(wt)) | Emax (PKR(wt)) | AC50 (PKR(G332S)) | activation at 1.54 µM (PKR(G332S)) | Emax (PKR(G332S)) | Emax (PKR(R510Q); [1]) | Structure (SMILES)
– | – | – | – | – | – | ≤ 0.1 µM | – | – | – | O=C(C(CO)c1ccccn1)N1CC2=C(C1)CN(S(=O)(=O)c1ccc(OC(F)F)cc1)C2 (single isomer, unassigned) [Example 42, (R or S)-1-(5-((4-(difluoromethoxy)phenyl)sulfonyl)-3,4,5,6-tetrahydropyrrolo[3,4-c]pyrrol-2(1H)-yl)-3-hydroxy-2-(pyridin-2-yl)propan-1-one]
– | – | – | 250 to 500% | 0.1 to 1 µM | 250 to 500% | – | – | – | – | O=C(CCO)N1CC2=C(C1)CN(S(=O)(=O)c1ccc3occc3c1)C2 [Example 22, 1-(5-(benzofuran-5-ylsulfonyl)-3,4,5,6-tetrahydropyrrolo[3,4-c]pyrrol-2(1H)-yl)-3-hydroxypropan-1-one]
– | – | – | 250 to 500% | 0.1 to 1 µM | 250 to 500% | – | – | – | – | C[C@@H](O)CC(=O)N1CC2=C(C1)CN(S(=O)(=O)c1ccc3occc3c1)C2 [Example 23, (R)-1-(5-(benzofuran-5-ylsulfonyl)-3,4,5,6-tetrahydropyrrolo[3,4-c]pyrrol-2(1H)-yl)-3-hydroxybutan-1-one]
– | – | – | 75 to 250% | 0.1 to 1 µM | 250 to 500% | – | – | – | – | C[C@H](O)CC(=O)N1CC2=C(C1)CN(S(=O)(=O)c1ccc3occc3c1)C2 [Example 24, (S)-1-(5-(benzofuran-5-ylsulfonyl)-3,4,5,6-tetrahydropyrrolo[3,4-c]pyrrol-2(1H)-yl)-3-hydroxybutan-1-one]
– | – | – | 75 to 250% | 0.1 to 1 µM | 250 to 500% | – | – | – | – | CC(C)(O)CC(=O)N1CC2=C(C1)CN(S(=O)(=O)c1ccc3occc3c1)C2 [Example 25, 1-(5-(benzofuran-5-ylsulfonyl)-3,4,5,6-tetrahydropyrrolo[3,4-c]pyrrol-2(1H)-yl)-3-hydroxy-3-methylbutan-1-one]
75 to 250% | 1 to 40 µM | – | – | – | – | – | – | – | 250 to 500% | COc1ccc(S(=O)(=O)N2CC3=C(CN(C(=O)CCO)C3)C2)cc1 [Example 40, 3-hydroxy-1-(5-((4-methoxyphenyl)sulfonyl)-3,4,5,6-tetrahydropyrrolo[3,4-c]pyrrol-2(1H)-yl)propan-1-one]
75 to 250% | 1 to 40 µM | – | 75 to 250% | 1 to 40 µM | 250 to 500% | – | – | – | 250 to 500% | O=C(CCO)N1CC2=C(C1)CN(S(=O)(=O)c1ccc(OC(F)F)cc1)C2 [Example 54, 1-(5-((4-(difluoromethoxy)phenyl)sulfonyl)-3,4,5,6-tetrahydropyrrolo[3,4-c]pyrrol-2(1H)-yl)-3-hydroxypropan-1-one]
75 to 250% | 1 to 40 µM | – | – | – | – | > 40 µM | 75 to 250% | 75 to 250% | 75 to 250% | O=C(C1COCCN1)N1CC2=C(C1)CN(S(=O)(=O)c1ccc3ncsc3c1)C2 (stereo not shown) [Example 56, (5-(benzo[d]thiazol-6-ylsulfonyl)-3,4,5,6-tetrahydropyrrolo[3,4-c]pyrrol-2(1H)-yl)(morpholin-3-yl)methanone]
